Results taken from paper PMC3816736 (Biochemical pharmacology, 2013).

Key:
xanthine oxidase (XO) [1] = biological target: T1, xanthine oxidase (XO) (Bos taurus, UniProt P80457); assay: spectrophotometric uric acid formation at […] nm, […] compound; type: biochemical
xanthine oxidase (XO) [2] = biological target: T1, xanthine oxidase (XO); assay: spectrophotometric uric acid formation at […] nm; type: biochemical

T1 sequence (P80457 2-1332): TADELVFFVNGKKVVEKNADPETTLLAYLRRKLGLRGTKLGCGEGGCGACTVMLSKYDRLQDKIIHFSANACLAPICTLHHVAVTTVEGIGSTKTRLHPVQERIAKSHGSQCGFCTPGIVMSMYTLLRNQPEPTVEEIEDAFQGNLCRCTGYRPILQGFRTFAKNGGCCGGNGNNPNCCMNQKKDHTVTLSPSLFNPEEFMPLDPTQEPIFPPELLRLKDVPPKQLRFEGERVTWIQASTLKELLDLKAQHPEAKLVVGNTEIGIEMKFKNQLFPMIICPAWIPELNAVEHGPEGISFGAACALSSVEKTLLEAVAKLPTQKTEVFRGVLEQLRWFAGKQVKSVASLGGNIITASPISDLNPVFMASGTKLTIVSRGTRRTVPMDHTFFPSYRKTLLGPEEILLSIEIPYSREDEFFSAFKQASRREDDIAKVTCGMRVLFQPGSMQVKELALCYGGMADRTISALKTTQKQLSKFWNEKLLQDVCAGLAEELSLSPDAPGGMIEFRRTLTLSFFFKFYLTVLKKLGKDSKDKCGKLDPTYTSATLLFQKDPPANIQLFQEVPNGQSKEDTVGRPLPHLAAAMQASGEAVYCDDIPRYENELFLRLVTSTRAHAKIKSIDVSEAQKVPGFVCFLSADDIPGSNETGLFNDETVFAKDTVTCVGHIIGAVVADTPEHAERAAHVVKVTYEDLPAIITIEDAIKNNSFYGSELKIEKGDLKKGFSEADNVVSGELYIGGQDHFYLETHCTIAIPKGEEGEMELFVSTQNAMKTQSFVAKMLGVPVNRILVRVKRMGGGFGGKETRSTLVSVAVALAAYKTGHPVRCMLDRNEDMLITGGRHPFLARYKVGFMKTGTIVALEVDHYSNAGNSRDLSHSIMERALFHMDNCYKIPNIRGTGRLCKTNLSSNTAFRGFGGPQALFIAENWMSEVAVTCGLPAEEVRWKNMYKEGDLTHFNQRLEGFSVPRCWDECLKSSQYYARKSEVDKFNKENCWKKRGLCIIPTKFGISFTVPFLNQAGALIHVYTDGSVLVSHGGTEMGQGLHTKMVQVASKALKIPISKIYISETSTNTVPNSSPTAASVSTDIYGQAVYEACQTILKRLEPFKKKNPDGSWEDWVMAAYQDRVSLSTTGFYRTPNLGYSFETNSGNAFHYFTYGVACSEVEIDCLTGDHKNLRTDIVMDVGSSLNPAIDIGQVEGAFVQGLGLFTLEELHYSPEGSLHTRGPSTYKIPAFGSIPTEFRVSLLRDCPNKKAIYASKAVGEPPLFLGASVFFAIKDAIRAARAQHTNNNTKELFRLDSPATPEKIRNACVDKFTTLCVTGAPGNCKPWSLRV

| IC50 (xanthine oxidase (XO) [2]) | SMILES | spectrophotometric uric acid formation at 295 nm, 20 μM compound (xanthine oxidase (XO) [1]) |
| --- | --- | --- |
|  | O=Cc1ccc(O)c(O)c1 [DHB-CHO, 3,4-dihydroxybenzaldehyde] | −CHO group such as DHNB, DH6NB, DHB-CHO and THB-CHO had an inhibitory effect on XO |
| 76 µM | OCc1ccc(O)c(O)c1 [DHBA, 3,4-dihydroxybenzyl alcohol] |  |
| > 80 µM | O=Cc1cc(O)c(O)c(O)c1 [THB-CHO, 3,4,5-trihydroxybenzaldehyde] |  |
